# From US9603896B2, “Peptide compounds and methods of production and use thereof” (priority 2012, dated 2017)
# Read-outs that look alike come from different tables or passages of the source. Square brackets hold non-standard residues; d marks the D form. Peptide text beside a SMILES is read from it. AEEA = NCCOCCOCC(=O)O
# Key:
# [1] = tested on: Pseudomonas aeruginosa ATCC® 27853™; assay type: cell-based; design: Log reduction of Pseudomonas: dose or concentration left out as unconfirmed; details: for Log reduction of Pseudomonas: starting inoculum 1×10^6 CFU/ml, 60 to 180 minute incubation; for Effects of Peptide Compounds on Pseudomonas aeruginosa ATCC ® 27853 ™: Table 6, 5 × 10^3 CFU/ml unless italicized = 1 × 10^5 CFU/ml
# [2] = tested on: E. coli ATCC® strain 25922™; assay type: cell-based, Escherichia coli; design: Log reduction of E. coli: dose or concentration left out as unconfirmed; Effects of Peptide Compounds on Escherichia coli ATCC ® 25922 ™: unit not given here; details: for Log reduction of E. coli: 25, starting inoculum 1×10^6 CFU/ml, 60 to 180 minute incubation; for Effects of Peptide Compounds on Escherichia coli ATCC ® 25922 ™: Table 6, 5 × 10^3 CFU/ml unless italicized = 1 × 10^5 CFU/ml
# Procedure: The three peptide compounds BCC01-5RMP (SEQ ID NO:21), BCC02-5RMP (SEQ ID NO:22), and BCC03-5RMP (SEQ ID NO:23) were assayed for in vitro bactericidal activity against Pseudomonas aeruginosa, Escherichia coli, Salmonella typhimurium, and Acinetobacter baumannii. […] The CFU remaining at the end of 60 to 180 minute incubation was determined, and the data plotted as a log reduction in CFU/ml.
# Tables 4-6 show the results of various peptides and peptide compounds against P. aeruginosa and E. coli strains. Tables 4 and 5 show the results of an investigation of the effects of peptide or peptide compounds BCC03-5RMP (SEQ ID NO:23), BCC03-MP (SEQ ID NO:24) and BCC03-5R (SEQ ID NO:20) against P. aeruginosa ATCC® strain 27853™ and E. coli ATCC® strain 25922™ (American Type Culture Collection, Manassas, Va.). […] Table 6 compares the activity of several other compounds, including the “5R” versions of BCC01, i.e., SEQ ID NO:18 (which comprises SEQ ID NO:1 with five additional arginines), the “5R” version of BCC02 (i.e., SEQ ID NO:19, which comprises SEQ ID NO:2 with five additional arginines), and BCC03-5RMP (SEQ ID NO:23), and BCC03-MP (SEQ ID NO:24, i.e., without the five additional R residues). The data generally indicate the superiority of BCC03-5RMP (SEQ ID NO:23) against E. coli, and the superiority of the 5R or 5RMP versions of the peptide over the “AEEA only” peptide against P. aeruginosa.
# [3] = tested on: TNF-α release from LPS-stimulated RAW264.7 cells; assay: LPS neutralization: TNF-α release from LPS-stimulated RAW264.7 cells; assay type: cell-based, mouse; details: Pseudomonas LPS
# Procedure: (§1) The well-characterized response of RAW264.7 macrophage cells was used to produce tumor necrosis-factor-alpha (TNF-α) in response to LPS to determine whether the peptides could dampen the release of this cytokine. […] Importantly, pre-treatment (3 hours prior to LPS addition) as well as post-treatment of the RAW264.7 cells (3 hours post LPS addition) with peptide dampened the cytokine release. […] The finding that the novel peptides bind and neutralize the effect of Pseudomonas LPS is of critical importance since this ensures that the novel therapeutic peptide compounds described herein will not only kill the bacteria, but will also neutralize the LPS endotoxin released by the bacteria which plays such an important role in the rapid progression of sepsis.
# (§2) BCC01-5RMP (SEQ ID NO:21), BCC02-5RMP (SEQ ID NO:22), and BCC03-5RMP (SEQ ID NO:23) were tested for their ability to bind lipopolysaccharide (LPS) using the limulus amebocyte lysate method (LAL). […] There was no statistical difference in their ability to bind LPS using the LAL technique. The ability of the peptides to neutralize LPS was assessed by determining their ability to attenuate the release of tumor necrosis factor-alpha (TNF-α) from LPS-stimulated RAW264.7 cells (a mouse macrophage cell line). […] No significant differences were observed between the three peptides to neutralize LPS as measured by cytokine release.
# [4] = LPS binding, Limulus Amebocyte Lysate (LAL) assay; design: species or system Pseudomonas
# Procedure: as §1, §2
# [5] = tested on: P. aeruginosa (ATCC® 27853™); assay: Pseudomonas keratitis model in the mouse eye; assay type: in vivo; details: C57/BL mice, topical, concentrations between 0.25 and 0.75 mg/ml
# Procedure: A circular wound was created on the mouse cornea by removing the epithelium and infected with 10^5 colony forming units (CFU) of P. aeruginosa (ATCC® 27853™ (American Type Culture Collection, Manassas, Va.)). Infected wounds were treated with saline (0.9% sodium chloride, vehicle control) or saline containing indicated concentrations of peptide every 15 minutes for 2 hours, then every 30 minutes for 3 hours on the first day. Infected wounds were treated twice on the second day and once on the third day. Mice were killed at 48 hours post-infection, and CFU/eye were quantified. The means were plotted and are representative of 5 to 9 mice per group. Mann Whitney test was performed for each group as compared to the saline control group. *P=0.014.
# A circular wound (2 mm) was created on the mouse cornea by removing the epithelium and infecting the wound with 10^5 CFU of P. aeruginosa (ATCC® 27853™ (American Type Culture Collection, Manassas, Va.)). Infected wounds were treated with saline or saline containing indicated concentrations of peptide every 15 minutes for 2 hours, then every 30 minutes for 3 hours on the first day. Infected wounds were treated twice on the second day and once on the third day. Mice were killed at 48 hours post-infection, and the colony forming units per eye (CFU/eye) were quantified. The means are plotted and are representative of 5 to 9 mice per group. Mann Whitney test was performed for each group as compared to the saline control group.
# For FIGS. 15-17, in vivo bactericidal activity of the peptides was also investigated using the standard Pseudomonas keratitis model in the mouse eye (FIGS. 15-17). Peptides 120-146QR-5RMP (SEQ ID NO:32), 120-146WH (SEQ ID NO:31), and 120-146WR (SEQ ID NO: 30) were applied topically at doses of 2, 5, 10, and 20 mg/ml to the wounded cornea that had been infected with 10^5 CFU of Pseudomonas aeruginosa. The efficacies of the peptides were compared to treatment with the vehicle control. Mice were euthanized at 48 hours post infection, and the CFU/eye were quantified.
# [6] = tested on: Pseudomonas clinical isolate B64; assay: BIOSCREEN C™ growth assay, antibiotic and peptide combinations; assay type: cell-based, Pseudomonas aeruginosa
# Procedure: Cefotaxime (Cefo) and peptide combinations included a constant amount of Cefotaxime (2.81 μg/ml) with suboptimal amounts of peptide (0, 0.34, 1.01, and 3.04 μg/ml).
# The peptide and antibiotics were set up in the wells of the microtiter plate at starting ratios of MIC equivalents of antibiotic:peptide at 3:1, 1:1, and 1:3. They were serially diluted to concentrations well below suboptimal/sublethal levels of the antibiotic and peptide. The organism was added (1×10^5 CFU/well), the BIOSCREEN C™ assay (Growth Systems USA, Piscataway, N.J.) was performed, and data was collected over 24 hours.
smiles,measurement,setting,value
CC[C@H](C)[C@H](NC(=O)[C@H](CC(C)C)NC(=O)[C@H](C)NC(=O)CNC(=O)CNC(=O)[C@H](CS)NC(=O)[C@H](Cc1ccccc1)NC(=O)[C@H](Cc1c[nH]cn1)NC(=O)[C@H](CCCNC(=N)N)NC(=O)CNC(=O)[C@H](CCC(N)=O)NC(=O)[C@H](CC(N)=O)NC(=O)[C@H](CCCNC(=N)N)NC(=O)[C@H](CCCNC(=N)N)NC(=O)[C@H](CCCNC(=N)N)NC(=O)[C@H](CCCNC(=N)N)NC(=O)COCCOCCNC(=O)COCCOCCN)C(=O)N[C@@H](Cc1c[nH]cn1)C(=O)N[C@@H](C)C(=O)N[C@@H](CCCNC(=N)N)C(=O)N[C@@H](Cc1ccccc1)C(=O)N[C@H](C(=O)N[C@@H](CCSC)C(=O)N[C@H](C(=O)N[C@@H](C)C(=O)N[C@@H](C)C(=O)N[C@@H](CO)C(=O)N[C@@H](CS)C(=O)N[C@@H](Cc1ccccc1)C(=O)N[C@@H](CCC(N)=O)C(=O)N[C@@H](CCCNC(=N)N)C(=O)O)[C@@H](C)O)C(C)C [BCC01-5RMP] (H-[AEEA][AEEA]RRRRNQGRHFCGGALIHARFVMTAASCFQR-OH),Log reduction of Pseudomonas,[1],5
same,Log reduction of E. coli,[2],3
same,neutralization of LPS: release of TNF-α,[3],attenuate the release of TNF-α
same,binding of Pseudomonas LPS,[4],bound Pseudomonas LPS
CC[C@H](C)[C@H](NC(=O)[C@H](CC(C)C)NC(=O)[C@H](C)NC(=O)CNC(=O)CNC(=O)[C@H](CO)NC(=O)[C@H](Cc1ccccc1)NC(=O)[C@H](Cc1c[nH]cn1)NC(=O)[C@H](CCCNC(=N)N)NC(=O)CNC(=O)[C@H](CCC(N)=O)NC(=O)[C@H](CC(N)=O)NC(=O)[C@H](CCCNC(=N)N)NC(=O)[C@H](CCCNC(=N)N)NC(=O)[C@H](CCCNC(=N)N)NC(=O)[C@H](CCCNC(=N)N)NC(=O)COCCOCCNC(=O)COCCOCCN)C(=O)N[C@@H](Cc1c[nH]cn1)C(=O)N[C@@H](C)C(=O)N[C@@H](CCCNC(=N)N)C(=O)N[C@@H](Cc1ccccc1)C(=O)N[C@H](C(=O)N[C@@H](CCSC)C(=O)N[C@H](C(=O)N[C@@H](C)C(=O)N[C@@H](C)C(=O)N[C@@H](CO)C(=O)N[C@@H](CS)C(=O)N[C@@H](Cc1ccccc1)C(=O)N[C@@H](CCC(N)=O)C(=O)N[C@@H](CCCNC(=N)N)C(=O)O)[C@@H](C)O)C(C)C [BCC02-5RMP] (H-[AEEA][AEEA]RRRRNQGRHFSGGALIHARFVMTAASCFQR-OH),bacteria in the eye (CFU/eye) at 48 hours post-infection,[5],effectively killed all bacteria and cured the infection
same,Log reduction of Pseudomonas,[1],4
same,Log reduction of E. coli,[2],4
same,sensitivity of the bacterium to Cefotaxime on addition of peptide,"[6]; 3.04 μg/ml of peptide plus Cefotaxime 2.81 μg/ml, P=0.0143",now sensitive
same,effect of peptide on the killing effect of Cefotaxime,[6]; 0.34 and 1.0 μg/ml of peptide plus Cefotaxime 2.81 μg/ml,no statistical effect
same,neutralization of LPS: release of TNF-α,[3],attenuate the release of TNF-α
same,binding of Pseudomonas LPS,[4],bound Pseudomonas LPS
CC[C@H](C)[C@H](NC(=O)[C@H](CC(C)C)NC(=O)[C@H](C)NC(=O)CNC(=O)CNC(=O)[C@H](CS)NC(=O)[C@H](Cc1ccccc1)NC(=O)[C@H](Cc1c[nH]cn1)NC(=O)[C@H](CCCNC(=N)N)NC(=O)CNC(=O)[C@H](CCC(N)=O)NC(=O)[C@H](CC(N)=O)NC(=O)[C@H](CCCNC(=N)N)NC(=O)[C@H](CCCNC(=N)N)NC(=O)[C@H](CCCNC(=N)N)NC(=O)[C@H](CCCNC(=N)N)NC(=O)COCCOCCNC(=O)COCCOCCN)C(=O)N[C@@H](Cc1c[nH]cn1)C(=O)N[C@@H](C)C(=O)N[C@@H](CCCNC(=N)N)C(=O)N[C@@H](Cc1ccccc1)C(=O)N[C@H](C(=O)N[C@@H](CCSC)C(=O)N[C@H](C(=O)N[C@@H](C)C(=O)N[C@@H](C)C(=O)N[C@@H](CO)C(=O)N[C@@H](CO)C(=O)N[C@@H](Cc1ccccc1)C(=O)N[C@@H](CCC(N)=O)C(=O)N[C@@H](CCCNC(=N)N)C(=O)O)[C@@H](C)O)C(C)C [BCC03-5RMP] (H-[AEEA][AEEA]RRRRNQGRHFCGGALIHARFVMTAASSFQR-OH; N-terminus assumed),Effects of Peptide Compounds on Pseudomonas aeruginosa ATCC ® 27853 ™,[1]; 0.78 μg/ml,87.4
same,Effects of Peptide Compounds on Pseudomonas aeruginosa ATCC ® 27853 ™,[1]; 1.56 μg/ml,96.6
same,Effects of Peptide Compounds on Pseudomonas aeruginosa ATCC ® 27853 ™,[1]; 3.125 μg/ml,98.4
same,Effects of Peptide Compounds on Pseudomonas aeruginosa ATCC ® 27853 ™,[1]; 6.25 μg/ml,99.8
same,Effects of Peptide Compounds on Pseudomonas aeruginosa ATCC ® 27853 ™,[1]; 12.5 μg/ml,99.9
same,Effects of Peptide Compounds on Pseudomonas aeruginosa ATCC ® 27853 ™,[1]; 25 μg/ml,100.0
same,Effects of Peptide Compounds on Pseudomonas aeruginosa ATCC ® 27853 ™,[1]; 50 μg/ml,100.0
same,Effects of Peptide Compounds on Pseudomonas aeruginosa ATCC ® 27853 ™,[1]; 100 μg/ml,100.0
same,Effects of Peptide Compounds on Pseudomonas aeruginosa ATCC ® 27853 ™,[1]; 200 μg/ml,100.0
same,Effects of Peptide Compounds on Escherichia coli ATCC ® 25922 ™,[2]; 0.78 μg/ml,12.3
same,Effects of Peptide Compounds on Escherichia coli ATCC ® 25922 ™,[2]; 1.56 μg/ml,23.0
same,Effects of Peptide Compounds on Escherichia coli ATCC ® 25922 ™,[2]; 3.125 μg/ml,32.8
same,Effects of Peptide Compounds on Escherichia coli ATCC ® 25922 ™,[2]; 6.25 μg/ml,78.7
same,Effects of Peptide Compounds on Escherichia coli ATCC ® 25922 ™,[2]; 12.5 μg/ml,99.3
same,Effects of Peptide Compounds on Escherichia coli ATCC ® 25922 ™,[2]; 25 μg/ml,99.7
same,Effects of Peptide Compounds on Escherichia coli ATCC ® 25922 ™,[2]; 50 μg/ml,99.9
same,Effects of Peptide Compounds on Escherichia coli ATCC ® 25922 ™,[2]; 100 μg/ml,99.9
same,Effects of Peptide Compounds on Escherichia coli ATCC ® 25922 ™,[2]; 200 μg/ml,99.9
same,neutralization of LPS: release of TNF-α,[3],attenuate the release of TNF-α
same,binding of Pseudomonas LPS,[4],bound Pseudomonas LPS
